From publication PMC4513223 (Clinical Pharmacokinetics, 2015)
Read-outs that look alike come from different tables or passages of the source.

Tests used:
[1] = test system: JAK1; details: human whole blood; cited from earlier work
[2] = test system: JAK1 (IL-6-induced STAT1 phosphorylation); type: cell-based, human; details: sigmoid Emax model, common to filgotinib and metabolite; estimate (% RSE)
[3] = Non-compartmental plasma pharmacokinetics after a single oral filgotinib dose; type: in vivo; details: male, human
[4] = type: in vivo, human; details: for Tmax / AUC(0-t) / Cmax / concentration at 12 h / concentration at 24 h: oral
[5] = Population pharmacokinetic model; type: in vivo, human; details: estimate (% RSE)

AUC(0-inf) ([3]; 10 mg): 136 ng·h/mL
Cmax ([3]; 10 mg): 35.7 ng/mL
Tmax ([3]; 10 mg): 1 h
half-life ([3]; 10 mg): 6.38 h
AUC(0-inf) ([3]; 25 mg): 348 ng·h/mL
Cmax ([3]; 25 mg): 83 ng/mL
Tmax ([3]; 25 mg): 2.5 h
half-life ([3]; 25 mg): 5.72 h
AUC(0-inf) ([3]; 50 mg): 771 ng·h/mL
Cmax ([3]; 50 mg): 247 ng/mL
Tmax ([3]; 50 mg): 2 h
half-life ([3]; 50 mg): 5.28 h
AUC(0-inf) ([3]; 100 mg): 1740 ng·h/mL
Cmax ([3]; 100 mg): 565 ng/mL
Tmax ([3]; 100 mg): 2 h
half-life ([3]; 100 mg): 4.91 h
AUC(0-inf) ([3]; 200 mg): 4840 ng·h/mL
Cmax ([3]; 200 mg): 1160 ng/mL
Tmax ([3]; 200 mg): 3 h
half-life ([3]; 200 mg): 5.68 h
Tmax ([4]; male, human, plasma): 0.5 to 5 h
AUC(0-t) ([4]; male, human, plasma, 25 mg): 346 ng·h/mL
Cmax ([4]; male, human, plasma, 25 mg): 144 ng/mL
Tmax ([4]; male, human, plasma, 25 mg): 0.5 h
concentration at 12 h ([4]; male, human, plasma, 25 mg): 3.75 ng/mL
AUC(0-t) ([4]; male, human, plasma, 50 mg): 758 ng·h/mL
Cmax ([4]; male, human, plasma, 50 mg): 211 ng/mL
Tmax ([4]; male, human, plasma, 50 mg): 1.5 h
concentration at 12 h ([4]; male, human, plasma, 50 mg): 9.52 ng/mL
AUC(0-t) ([4]; male, human, plasma, 100 mg): 2380 ng·h/mL
Cmax ([4]; male, human, plasma, 100 mg): 556 ng/mL
Tmax ([4]; male, human, plasma, 100 mg): 3 h
concentration at 12 h ([4]; male, human, plasma, 100 mg): 27.8 ng/mL
AUC(0-t) ([4]; male, human, plasma, 200 mg): 4450 ng·h/mL
Cmax ([4]; male, human, plasma, 200 mg): 1200 ng/mL
Tmax ([4]; male, human, plasma, 200 mg): 2 h
concentration at 24 h ([4]; male, human, plasma, 200 mg): 6.04 ng/mL
AUC(0-t) ([4]; male, human, plasma, 300 mg): 4400 ng·h/mL
Cmax ([4]; male, human, plasma, 300 mg): 1380 ng/mL
Tmax ([4]; male, human, plasma, 300 mg): 1.5 h
concentration at 24 h ([4]; male, human, plasma, 300 mg): 9.93 ng/mL
AUC(0-t) ([4]; male, human, plasma, 450 mg): 10200 ng·h/mL
Cmax ([4]; male, human, plasma, 450 mg): 2580 ng/mL
Tmax ([4]; male, human, plasma, 450 mg): 2.5 h
concentration at 24 h ([4]; male, human, plasma, 450 mg): 17.6 ng/mL
half-life ([4]; male, human, plasma, po, elimination half-life, average, oral administration): 6 h
accumulation at steady state ([4]; repeated dosing): no accumulation
time to steady state of plasma concentrations ([4]; repeated dosing, regardless of dose and regimen (once or twice daily)): ≤ 2 days
Effect of sex (on V C/F) ([5]; covariate effect): 2.95 (47.7)
Relative increase in bioavailability in RA patients vs healthy volunteers [5]: 0.216 (39.0)
ka (first-order absorption rate constant) ([5]; log-transformed parameter): −0.733 (5.64) /h
FRAC300 mg ([5]; probit-transformed parameter, 300 mg dose): 0.375 (23.9)
FRAC450 mg ([5]; probit-transformed parameter, 450 mg dose): 0.363 (38.5)
SMILES: O=C(Nc1nc2cccc(-c3ccc(CN4CCS(=O)(=O)CC4)cc3)n2n1)C1CC1 [Filgotinib]
selectivity for JAK1- over JAK2-dependent signaling [1]: 30 fold
log H (hill factor) [2]: 0.680 (27.7)
